Results on 19 molecules are retold here after US10259810B2, “N-sulfonylated pyrazolo[3,4-b]pyridin-6-carboxamides and method of use” (AbbVie S.à.r.l., priority 2015, dated 2019).

The structures appear in SMILES notation.

For orientation: EC50 means the concentration needed to bring the measured effect to its halfway point.

Assay [1] deals with T1, ΔF508-CFTR (Homo sapiens, UniProt P13569, DEL508-508).
T1 construct: host or cells: CFBE41o-, doxycycline-inducible
The experiment in a line: CFTR cell surface levels using HRP-tagged ΔF508-CFTR expressing CFBE cells, in the presence of a co-corrector. Conditions: HRP-tagged ΔF508-CFTR CFBE cells, in the presence of 3 μM co-corrector; for EC50: read-out: EC50. Type of assay: cell-based. The essentials:
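Chemiluminescent read-out of surface HRP (15 min, dark) after PBS washes. Activity is normalized as 100×(sample−DMSO)/(3 μM co-corrector alone−DMSO).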

For assay [2], the target named is T1, ΔF508-CFTR. Nature of the assay: CFTR cell surface levels using HRP-tagged ΔF508-CFTR expressing CFBE cells, intrinsic corrector capacity. Type of assay: cell-based. Set-up: % Activation: concentration or dose not given beside the values. Conditions: HRP-tagged ΔF508-CFTR expressing CFBE41o- cells, compound alone (intrinsic corrector capacity), 20 hours at 33° C.; for EC50: read-out: EC50. The essentials:
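Read-out: chemiluminescent HRP activity of ECL4-HRP-tagged ΔF508-CFTR at the cell surface, 15 min substrate in dark. Normalized as 100×(sample−DMSO)/(positive control−DMSO).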

T1 sequence (P13569 with tags, fused parts or gaps DEL508-508): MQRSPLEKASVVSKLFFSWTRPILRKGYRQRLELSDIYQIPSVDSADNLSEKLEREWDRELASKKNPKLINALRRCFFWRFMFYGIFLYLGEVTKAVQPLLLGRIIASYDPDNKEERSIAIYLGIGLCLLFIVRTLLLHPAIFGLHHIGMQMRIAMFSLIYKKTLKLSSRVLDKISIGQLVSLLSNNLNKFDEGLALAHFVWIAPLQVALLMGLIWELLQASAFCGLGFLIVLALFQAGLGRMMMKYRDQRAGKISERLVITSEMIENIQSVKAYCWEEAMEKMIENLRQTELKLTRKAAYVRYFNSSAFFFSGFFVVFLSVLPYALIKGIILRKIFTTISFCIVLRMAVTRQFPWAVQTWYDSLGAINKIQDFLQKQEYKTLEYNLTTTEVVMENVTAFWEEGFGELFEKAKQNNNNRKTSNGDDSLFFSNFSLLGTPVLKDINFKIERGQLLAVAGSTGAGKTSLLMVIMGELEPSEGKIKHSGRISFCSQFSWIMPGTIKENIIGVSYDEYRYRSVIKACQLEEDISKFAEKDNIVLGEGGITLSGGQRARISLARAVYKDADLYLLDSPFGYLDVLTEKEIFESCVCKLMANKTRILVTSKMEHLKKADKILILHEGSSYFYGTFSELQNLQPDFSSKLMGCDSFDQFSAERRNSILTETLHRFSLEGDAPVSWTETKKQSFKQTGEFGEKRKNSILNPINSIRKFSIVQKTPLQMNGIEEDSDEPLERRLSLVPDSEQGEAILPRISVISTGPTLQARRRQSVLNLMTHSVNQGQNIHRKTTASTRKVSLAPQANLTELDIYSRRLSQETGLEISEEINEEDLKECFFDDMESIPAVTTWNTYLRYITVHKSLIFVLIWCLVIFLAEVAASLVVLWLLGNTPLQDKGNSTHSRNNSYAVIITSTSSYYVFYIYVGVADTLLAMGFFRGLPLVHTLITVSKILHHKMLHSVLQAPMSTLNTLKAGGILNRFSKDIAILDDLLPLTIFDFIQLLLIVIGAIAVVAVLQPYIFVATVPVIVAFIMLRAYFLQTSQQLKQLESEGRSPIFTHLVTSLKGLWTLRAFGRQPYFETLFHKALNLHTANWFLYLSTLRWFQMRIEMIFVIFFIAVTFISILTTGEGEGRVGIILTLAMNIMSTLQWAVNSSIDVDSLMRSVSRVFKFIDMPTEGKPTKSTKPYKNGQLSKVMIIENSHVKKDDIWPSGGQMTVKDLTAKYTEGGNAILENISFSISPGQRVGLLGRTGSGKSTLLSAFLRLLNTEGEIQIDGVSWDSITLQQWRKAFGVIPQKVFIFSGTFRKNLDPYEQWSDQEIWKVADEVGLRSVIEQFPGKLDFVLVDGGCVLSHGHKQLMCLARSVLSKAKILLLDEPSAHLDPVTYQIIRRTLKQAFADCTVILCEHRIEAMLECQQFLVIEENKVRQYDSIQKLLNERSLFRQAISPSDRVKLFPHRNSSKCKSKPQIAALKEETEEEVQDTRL

Take `CC(C)c1nn(-c2ccc(F)cc2)c2nc(C(=O)NS(C)(=O)=O)cc(N3CCC4(CCCO4)CC3)c12` [Compound 180, 1-(4-fluorophenyl)-N-(methanesulfonyl)-4-(1-oxa-8-azaspiro[4.5]decan-8-yl)-3-(propan-2-yl)-1H-pyrazolo[3,4-b]pyridine-6-carboxamide]: at ΔF508-CFTR [1], the “% Activation” value worked out at 290.53% and the EC50 worked out at 300 nM. Further, on ΔF508-CFTR [2], the “% Activation” value was found to be 129.5% and the EC50 was 570 nM.

In the case of `CS(=O)(=O)NC(=O)c1cc(OCC2CCCCC2)c2c(C3CCC3)nn(-c3ccccc3)c2n1` [Compound 181, 3-cyclobutyl-4-(cyclohexylmethoxy)-N-(methanesulfonyl)-1-phenyl-1H-pyrazolo[3,4-b]pyridine-6-carboxamide], on ΔF508-CFTR [1], the “% Activation” value is 357.93% and the concentration for a half-maximal effect (EC50) was 435 nM. On ΔF508-CFTR [2], the “% Activation” value is 137.73% and the EC50 turned out to be 398 nM.

For the molecule `COCCC1CCN(c2cc(C(=O)NS(C)(=O)=O)nc3c2c(C2CCC2)nn3-c2ccccc2)CC1` [Compound 183, 3-cyclobutyl-N-(methanesulfonyl)-4-[4-(2-methoxyethyl)piperidin-1-yl]-1-phenyl-1H-pyrazolo[3,4-b]pyridine-6-carboxamide], the entries for the “% Activation” value on ΔF508-CFTR [1] and at ΔF508-CFTR [2] were 498.57% and 302%, respectively. In addition, the figures for the EC50 at ΔF508-CFTR [1] and at ΔF508-CFTR [2] were 214 nM and 389 nM, respectively.

Take `CS(=O)(=O)NC(=O)c1cc(N2CC3(CCCC3)C2)c2c(C3CCC3)nn(-c3ccccc3)c2n1` [Compound 184, 4-(2-azaspiro[3.4]octan-2-yl)-3-cyclobutyl-N-(methanesulfonyl)-1-phenyl-1H-pyrazolo[3,4-b]pyridine-6-carboxamide]: on ΔF508-CFTR [1], the “% Activation” value stood at 282.7% and the EC50 is 574 nM. Moreover, on ΔF508-CFTR [2], the “% Activation” value is 95.405% and the concentration for a half-maximal effect (EC50) is 719 nM.

Take `CS(=O)(=O)NC(=O)c1cc(N2CC3CC3C2)c2c(C3CCC3)nn(-c3ccccc3)c2n1` (stereo not shown) [Compound 186, 4-(3-azabicyclo[3.1.0]hexan-3-yl)-3-cyclobutyl-N-(methanesulfonyl)-1-phenyl-1H-pyrazolo[3,4-b]pyridine-6-carboxamide]: on ΔF508-CFTR [1], the “% Activation” value came to 381.87% and the EC50 was determined as 531 nM. In addition, on ΔF508-CFTR [2], the “% Activation” value is listed as 209.57% and the EC50 was determined as 616 nM.

In the case of `CS(=O)(=O)NC(=O)c1cc(-c2ccc(N3CCC(C#N)CC3)nc2)c2c(C3CCC3)nn(-c3ccnc(N4CCCC4)c3)c2n1` [Compound 189, 4-[6-(4-cyanopiperidin-1-yl)pyridin-3-yl]-3-cyclobutyl-N-(methanesulfonyl)-1-[2-(pyrrolidin-1-yl)pyridin-4-yl]-1H-pyrazolo[3,4-b]pyridine-6-carboxamide], on ΔF508-CFTR [1], the “% Activation” value is on record as 409.6% and the EC50 worked out at 236 nM. In addition, on ΔF508-CFTR [2], the “% Activation” value was 236.2% and the EC50 came out at 421 nM.

With `CS(=O)(=O)NC(=O)c1cc(N2CC3(CCCCC3)C2)c2c(C3CCC3)nn(-c3ccccc3)c2n1` [Compound 192, 4-(2-azaspiro[3.5]nonan-2-yl)-3-cyclobutyl-N-(methanesulfonyl)-1-phenyl-1H-pyrazolo[3,4-b]pyridine-6-carboxamide], on ΔF508-CFTR [1], the “% Activation” value came to 254.6% and the EC50 came to 866 nM. Further, on ΔF508-CFTR [2], the “% Activation” value turned out to be 81.49% and the EC50 was 1140 nM.

Turning to `CO[C@H]1C[C@@H](c2nn(-c3ccccc3)c3nc(C(=O)NS(C)(=O)=O)cc(-c4ccc(N5CCC(C#N)CC5)nc4)c32)C1` [Compound 194, 4-[6-(4-cyanopiperidin-1-yl)pyridin-3-yl]-N-(methanesulfonyl)-3-(cis-3-methoxycyclobutyl)-1-phenyl-1H-pyrazolo[3,4-b]pyridine-6-carboxamide], at ΔF508-CFTR [1], the “% Activation” value was determined as 427.45% and the EC50 stood at 371 nM. Also, on ΔF508-CFTR [2], the “% Activation” value came out at 213.75% and the EC50 turned out to be 745 nM.

On to `CS(=O)(=O)NC(=O)c1cc(-c2ccc(N3CCC(C#N)CC3)nc2)c2c(C3CC(F)(F)C3)nn(-c3ccccc3)c2n1` [Compound 195, 4-[6-(4-cyanopiperidin-1-yl)pyridin-3-yl]-3-(3,3-difluorocyclobutyl)-N-(methanesulfonyl)-1-phenyl-1H-pyrazolo[3,4-b]pyridine-6-carboxamide], for which, on ΔF508-CFTR [1], the “% Activation” value came to 387.47% and the EC50 amounted to 192 nM. On ΔF508-CFTR [2], the “% Activation” value was determined as 225.2% and the EC50 worked out at 370 nM.

For `CC1(C)CC(c2nn(-c3ccccc3)c3nc(C(=O)NS(C)(=O)=O)cc(-c4ccc(N5CCC(C#N)CC5)nc4)c23)C1` [Compound 196, 4-[6-(4-cyanopiperidin-1-yl)pyridin-3-yl]-3-(3,3-dimethylcyclobutyl)-N-(methanesulfonyl)-1-phenyl-1H-pyrazolo[3,4-b]pyridine-6-carboxamide], the results for the “% Activation” value on ΔF508-CFTR [1] and at ΔF508-CFTR [2] were 387.1% and 188.47%, respectively. Further, the EC50 was determined as 231 nM on ΔF508-CFTR [1] and 339 nM on ΔF508-CFTR [2].

For `CS(=O)(=O)NC(=O)c1cc(-c2ccc(N3CCC(C#N)CC3)nc2)c2c(C3CC(F)C3)nn(-c3ccccc3)c2n1` (stereo not shown) [Compound 197, 4-[6-(4-cyanopiperidin-1-yl)pyridin-3-yl]-3-(3-fluorocyclobutyl)-N-(methanesulfonyl)-1-phenyl-1H-pyrazolo[3,4-b]pyridine-6-carboxamide], at ΔF508-CFTR [1], the “% Activation” value is given as 390.8% and the EC50 was 194 nM. Moreover, on ΔF508-CFTR [2], the “% Activation” value is given as 220.2% and the EC50 is 397 nM.

As to `CS(=O)(=O)NC(=O)c1cc(N2CCC3(C2)CC3(F)F)c2c(C3CCC3)nn(-c3ccccc3)c2n1` (stereo not shown) [Compound 202, 3-cyclobutyl-4-(1,1-difluoro-5-azaspiro[2.4]heptan-5-yl)-N-(methanesulfonyl)-1-phenyl-1H-pyrazolo[3,4-b]pyridine-6-carboxamide], at ΔF508-CFTR [1], the “% Activation” value stood at 299.4% and the EC50 amounted to 255 nM. Further, at ΔF508-CFTR [2], the “% Activation” value was found to be 147.23% and the EC50 turned out to be 595 nM.

For `CS(=O)(=O)NC(=O)c1cc(N2CC3(CCCCO3)C2)c2c(C3CCC3)nn(-c3ccccc3)c2n1` [Compound 203, 3-cyclobutyl-N-(methanesulfonyl)-4-(5-oxa-2-azaspiro[3.5]nonan-2-yl)-1-phenyl-1H-pyrazolo[3,4-b]pyridine-6-carboxamide], at ΔF508-CFTR [1], the “% Activation” value turned out to be 224.63% and the EC50 was determined as 328 nM. Besides, at ΔF508-CFTR [2], the “% Activation” value is 82.59% and the EC50 was 1020 nM.

With `CS(=O)(=O)NC(=O)c1cc(N2CC3(CCOCC3)C2)c2c(C3CCC3)nn(-c3ccccc3)c2n1` [Compound 204, 3-cyclobutyl-N-(methanesulfonyl)-4-(7-oxa-2-azaspiro[3.5]nonan-2-yl)-1-phenyl-1H-pyrazolo[3,4-b]pyridine-6-carboxamide], the figures for the “% Activation” value at ΔF508-CFTR [1] and on ΔF508-CFTR [2] were 288.6% and 117.6%, respectively. Moreover, the EC50 on ΔF508-CFTR [1] is 490 nM; on ΔF508-CFTR [2], 978 nM.

Take `CS(=O)(=O)NC(=O)c1cc(N2CCCC3(CC3)C2)c2c(C3CCC3)nn(-c3ccccc3)c2n1` [Compound 205, 4-(5-azaspiro[2.5]octan-5-yl)-3-cyclobutyl-N-(methanesulfonyl)-1-phenyl-1H-pyrazolo[3,4-b]pyridine-6-carboxamide]: on ΔF508-CFTR [1], the “% Activation” value is reported as 416.4% and the EC50 was determined as 856 nM. Also, at ΔF508-CFTR [2], the “% Activation” value amounted to 208.5% and the EC50 turned out to be 956 nM.

In the case of `COCCN(C)c1cc(C(=O)NS(C)(=O)=O)nc2c1c(C1CCC1)nn2-c1ccccc1` [Compound 206, 3-cyclobutyl-N-(methanesulfonyl)-4-[(2-methoxyethyl)(methyl)amino]-1-phenyl-1H-pyrazolo[3,4-b]pyridine-6-carboxamide], the entries for the “% Activation” value on ΔF508-CFTR [1] and on ΔF508-CFTR [2] were 387.03% and 169.03%, respectively. In addition, the EC50 is 890 nM at ΔF508-CFTR [1] and 1400 nM at ΔF508-CFTR [2].

In the case of `COC1CCN(c2cc(C(=O)NS(=O)(=O)C3CCN(C(=O)OCc4ccccc4)CC3)nc3c2c(C2CCC2)nn3-c2ccccc2)CC1` [Compound 208, benzyl 4-{[3-cyclobutyl-4-(4-methoxypiperidin-1-yl)-1-phenyl-1H-pyrazolo[3,4-b]pyridine-6-carbonyl]sulfamoyl}piperidine-1-carboxylate], the “% Activation” value at ΔF508-CFTR [1] is recorded as 419.15%; at ΔF508-CFTR [2], 190.55%. The EC50 turned out to be 364 nM on ΔF508-CFTR [1] and 402 nM on ΔF508-CFTR [2].

For the molecule `CS(=O)(=O)NC(=O)c1cc(-c2ccc(N3CCC(C#N)CC3)nc2)c2c(n1)n(-c1ccccc1)nc2[C@H]1C[C@@H](F)C1` [Compound 209, 4-[6-(4-cyanopiperidin-1-yl)pyridin-3-yl]-3-(cis-3-fluorocyclobutyl)-N-(methanesulfonyl)-1-phenyl-1H-pyrazolo[3,4-b]pyridine-6-carboxamide], at ΔF508-CFTR [1], the “% Activation” value stood at 393.6% and the EC50 turned out to be 231 nM. On ΔF508-CFTR [2], the “% Activation” value worked out at 247.6% and the EC50 amounted to 381 nM.

For the molecule `CS(=O)(=O)NC(=O)c1cc(-c2ccc(N3CCC(C#N)CC3)nc2)c2c(n1)n(-c1ccccc1)nc2[C@H]1C[C@H](F)C1` [Compound 210, 4-[6-(4-cyanopiperidin-1-yl)pyridin-3-yl]-3-(trans-3-fluorocyclobutyl)-N-(methanesulfonyl)-1-phenyl-1H-pyrazolo[3,4-b]pyridine-6-carboxamide], at ΔF508-CFTR [1], the “% Activation” value is 390.57% and the EC50 was 174 nM. For the same molecule, on ΔF508-CFTR [2], the “% Activation” value stood at 205.57% and the EC50 is 286 nM.
